Test [1] deals with MCF-7 (human breast cancer cell line). The test can be described thus: Cytotoxicity test by MTT assay, MCF-7. It is filed as cell-based. Conditions: Homo sapiens, read-out: Cell viability (% inhibition). As for the experimental part: (§1) A cytotoxicity test was measured by MTT assay. Each cell line was cultured in a 96-well plate at a density of 1×10^4 cells/well. […] MTT (3-(4,5-dimethylthiazol-2-yl)-2,5-diphenyltetrazolium bromide) solution (5 mg/mL) was added to each well and reacted for 4 hours in an incubator. […] After reacting in an incubator for 30 minutes, the formation of formazan was quantified using a microplate reader at an absorbance of 540 nm. […] At this time, sunitinib was used as a control group. […] The human cancer cell lines used herein are MCF-7 (breast cancer), MDA-MB-231 (breast cancer), HT-29 (colon cancer), DU145 (prostate cancer), U937 (myeloid leukemia), A549 (lung cancer), PANC-1 (pancreatic cancer) and MIA PaCa-2 (pancreatic cancer).

The test system of test [2] is PANC-1 (human pancreatic cancer cell line). Nature of the test: Cytotoxicity test by MTT assay, PANC-1. The following applies: Homo sapiens, read-out: Cell viability (% inhibition). It is filed as cell-based. As for the experimental part:
as §1
Background: Formazan colour is commonly taken as a measure of viable cells.

Read-outs that look alike come from different tables or passages of the source.

For the compound `CCC(/C=C1\C(=O)Nc2nc(C)c(O)c(C)c21)CC` [Compound I-02, (Z)-3-(2-Ethylbutylidene)-5-hydroxy-4,6-dimethyl-1H-pyrrolo[2,3-b]pyridin-2(3H)-one], the cytotoxicity at 30 µM in test [1] (MCF7, MCF-7, 30 μM, 48 h) amounted to 30.5%; in test [2] (PANC-1, 30 μM, 48 h), 44.9%.
Take `CC(C)=C/C=C1\C(=O)Nc2nc(C)c(O)c(C)c21` [Compound I-03, (Z)-5-Hydroxy-4,6-dimethyl-3-(3-methylbut-2-enylidene)-1H-pyrrolo[2,3-b]pyridin-2(3H)-one]: the cytotoxicity at 30 µM is 6.6% in test [1] (MCF7, MCF-7, 30 μM, 48 h) and 37.5% in test [2] (PANC-1, 30 μM, 48 h).
Take `COc1cc(/C=C/C=C2\C(=O)Nc3nc(C)c(O)c(C)c32)ccc1O` [Compound I-04, (Z)-5-Hydroxy-3-((E)-3-(4-hydroxy-3-methoxyphenyl)allylidene)-4,6-dimethyl-1H-pyrrolo[2,3-b]pyridin-2(3H)-one]: the cytotoxicity at 30 µM in test [1] (MCF7, MCF-7, 30 μM, 48 h) was 6.9%; in test [2] (PANC-1, 30 μM, 48 h), 24.4%.
For `Cc1nc2c(c(C)c1O)/C(=C/C1CCCCC1)C(=O)N2` [Compound I-05, (Z)-3-(Cyclohexylmethylene)-5-hydroxy-4,6-dimethyl-1H-pyrrolo[2,3-b]pyridin-2(3H)-one], the cytotoxicity at 30 µM in test [1] (MCF7, MCF-7, 30 μM, 48 h) is 10%; in test [2] (PANC-1, 30 μM, 48 h), 49%.
Take `Cc1ccc(/C=C2\C(=O)Nc3nc(C)c(O)c(C)c32)cc1` [Compound I-06, (Z)-5-Hydroxy-4,6-dimethyl-3-(4-methylbenzylidene)-1H-pyrrolo[2,3-b]pyridin-2(3H)-one]: the cytotoxicity at 30 µM came to 32.3% in test [1] (MCF7, MCF-7, 30 μM, 48 h) and 29.1% in test [2] (PANC-1, 30 μM, 48 h).
Regarding `Cc1nc2c(c(C)c1O)/C(=C/c1ccccc1[N+](=O)[O-])C(=O)N2` [Compound I-07, (Z)-5-Hydroxy-4,6-dimethyl-3-(2-nitrobenzylidene)-1H-pyrrolo[2,3-b]pyridin-2(3H)-one], the cytotoxicity at 30 µM amounted to 23.9% in test [1] (MCF7, MCF-7, 30 μM, 48 h) and 27.8% in test [2] (PANC-1, 30 μM, 48 h).
On the same counts, the results for `Cc1nc2c(c(C)c1O)/C(=C/c1ccc([N+](=O)[O-])cc1)C(=O)N2` [Compound I-08, (Z)-5-Hydroxy-4,6-dimethyl-3-(4-nitrobenzylidene)-1H-pyrrolo[2,3-b]pyridin-2(3H)-one] are 16.3% and 32.5%.
With `Cc1nc2c(c(C)c1O)/C(=C/c1ccc(F)cc1)C(=O)N2` [Compound I-09, (Z)-3-(4-Fluorobenzylidene)-5-hydroxy-4,6-dimethyl-1H-pyrrolo[2,3-b]pyridin-2(3H)-one], the cytotoxicity at 30 µM in test [1] (MCF7, MCF-7, 30 μM, 48 h) was found to be 48.3%; in test [2] (PANC-1, 30 μM, 48 h), 51.8%.
On the same counts, the results for `Cc1nc2c(c(C)c1O)/C(=C/c1ccc(Cl)cc1)C(=O)N2` [Compound I-10, (Z)-3-(4-Chlorobenzylidene)-5-hydroxy-4,6-dimethyl-1H-pyrrolo[2,3-b]pyridin-2(3H)-one] are 51.7% and 44.9%.
As for `Cc1nc2c(c(C)c1O)/C(=C/c1ccccc1O)C(=O)N2` [Compound I-11, (Z)-5-Hydroxy-3-(2-hydroxybenzylidene)-4,6-dimethyl-1H-pyrrolo[2,3-b]pyridin-2(3H)-one], the cytotoxicity at 30 µM was determined as 29.2% in test [1] (MCF7, MCF-7, 30 μM, 48 h) and 42% in test [2] (PANC-1, 30 μM, 48 h).
For `COc1ccccc1/C=C1\C(=O)Nc2nc(C)c(O)c(C)c21` [Compound I-12, (Z)-5-hydroxy-3-(2-methoxybenzylidene)-4,6-dimethyl-1H-pyrrolo[2,3-b]pyridin-2(3H)-one], the cytotoxicity at 30 µM in test [1] (MCF7, MCF-7, 30 μM, 48 h) is 30.7%; in test [2] (PANC-1, 30 μM, 48 h), 10.2%.
On the same counts, the results for `COc1cccc(/C=C2\C(=O)Nc3nc(C)c(O)c(C)c32)c1` [Compound I-13, (Z)-5-Hydroxy-3-(3-methoxybenzylidene)-4,6-dimethyl-1H-pyrrolo[2,3-b]pyridin-2(3H)-one] are 29.6% and 46.4%.
The matching figures for `COc1ccc(/C=C2\C(=O)Nc3nc(C)c(O)c(C)c32)cc1` [Compound I-14, (Z)-5-Hydroxy-3-(4-methoxybenzylidene)-4,6-dimethyl-1H-pyrrolo[2,3-b]pyridin-2(3H)-one]: 23.9% and 36.3%.
With `COc1cc(/C=C2\C(=O)Nc3nc(C)c(O)c(C)c32)cc(OC)c1OC` [Compound I-16, (Z)-5-Hydroxy-4,6-dimethyl-3-(3,4,5-trimethoxybenzylidene)-1H-pyrrolo[2,3-b]pyridin-2(3H)-one], the cytotoxicity at 30 µM in test [1] (MCF7, MCF-7, 30 μM, 48 h) turned out to be 41.2%; in test [2] (PANC-1, 30 μM, 48 h) it was 40.6%.
`Cc1nc2c(c(C)c1O)/C(=C/c1ccc3ccccc3c1)C(=O)N2` [Compound I-20, (Z)-5-Hydroxy-4,6-dimethyl-3-(naphthalen-2-ylmethylene)-1H-pyrrolo[2,3-b]pyridin-2(3H)-one]: the cytotoxicity at 30 µM in test [1] (MCF7, MCF-7, 30 μM, 48 h) was found to be 30.5%; in test [2] (PANC-1, 30 μM, 48 h) it was 28.9%.
On the same counts, the results for `Cc1nc2c(c(C)c1O)/C(=C/c1ccccn1)C(=O)N2` [Compound I-21, (Z)-5-Hydroxy-4,6-dimethyl-3-(pyridin-2-ylmethylene)-1H-pyrrolo[2,3-b]pyridin-2(3H)-one] are 28.1% and 29.2%.
On to `Cc1nc2c(c(C)c1O)/C(=C/c1cccc3[nH]ccc13)C(=O)N2` [Compound I-25, (Z)-3-((1H-Indol-4-yl)methylene)-5-hydroxy-4,6-dimethyl-1H-pyrrolo[2,3-b]pyridin-2(3H)-one], for which the cytotoxicity at 30 µM in test [1] (MCF7, MCF-7, 30 μM, 48 h) was 14.5%; in test [2] (PANC-1, 30 μM, 48 h), 32.3%.
On the same counts, the results for `Cc1nc2c(c(C)c1O)/C(=C/c1c[nH]c3ccccc13)C(=O)N2` [Compound I-26, (Z)-3-((1H-Indol-3-yl)methylene)-5-hydroxy-4,6-dimethyl-1H-pyrrolo[2,3-b]pyridin-2(3H)-one] are 2.4% and 17.1%.
In the case of `Cc1nc2c(c(C)c1O)/C(=C/c1ccco1)C(=O)N2` [Compound I-27, (Z)-3-(Furan-2-ylmethylene)-5-hydroxy-4,6-dimethyl-1H-pyrrolo[2,3-b]pyridin-2(3H)-one], the cytotoxicity at 30 µM was 31.5% in test [1] (MCF7, MCF-7, 30 μM, 48 h) and 16.4% in test [2] (PANC-1, 30 μM, 48 h).
Consider `Cc1nc2c(c(C)c1O)/C(=C/c1cccs1)C(=O)N2` [Compound I-29, (Z)-5-Hydroxy-4,6-dimethyl-3-(thiophen-2-ylmethylene)-1H-pyrrolo[2,3-b]pyridin-2(3H)-one], for which the cytotoxicity at 30 µM in test [1] (MCF7, MCF-7, 30 μM, 48 h) turned out to be 57.8%; in test [2] (PANC-1, 30 μM, 48 h), 42.2%.
The matching figures for `Cc1ccsc1/C=C1\C(=O)Nc2nc(C)c(O)c(C)c21` [Compound I-30, (Z)-5-Hydroxy-4,6-dimethyl-3-((3-methylthiophen-2-yl)methylene)-1H-pyrrolo[2,3-b]pyridin-2(3H)-one]: 59% and 47.2%.
On the same counts, the results for `Cc1nc2c(c(C)c1O)/C(=C/c1ncc[nH]1)C(=O)N2` [Compound I-33, (Z)-3-((1H-Imidazol-2-yl)methylene)-5-hydroxy-4,6-dimethyl-1H-pyrrolo[2,3-b]pyridin-2(3H)-one] are 2.6% and 7.2%.
As to `Cc1nc2c(c(C)c1O)/C(=C/c1c[nH]cn1)C(=O)N2` [Compound I-34, (Z)-3-((1H-Imidazol-4-yl)methylene)-5-hydroxy-4,6-dimethyl-1H-pyrrolo[2,3-b]pyridin-2(3H)-one], the cytotoxicity at 30 µM in test [1] (MCF7, 48 h) was determined as 4.1%; in test [2] (PANC-1, 48 h), 4.5%.
As to `Cc1nc2c(c(C)c1O)/C(=C/c1nccs1)C(=O)N2` [Compound I-35, (Z)-5-Hydroxy-4,6-dimethyl-3-(thiazol-2-ylmethylene)-1H-pyrrolo[2,3-b]pyridin-2(3H)-one], the cytotoxicity at 30 µM stood at 5.6% in test [1] (MCF7, MCF-7, 30 μM, 48 h) and 9% in test [2] (PANC-1, 30 μM, 48 h).

The values are drawn from patent US10544140B2, “Pharmaceutical composition containing, as active ingredient, 7-azaindolin-2-one derivative or pharmaceutically acceptable salt thereof” (LG CHEM, LTD., priority 2015, dated 2020).
